Assay results from US20240376154A1, “BIS-INTERCALATING PEPTIDES, CONJUGATES AND METHODS OF USE” (ZYMEWORKS BC INC., priority 2023, published 2024).

Settings: amide bond; 32-membered ring

Substance | ring closure, isolated yield
Benzyl tert-butyl ((7R,11S,19aS,26R,30S,38aS)-11,30-diisopropyl-12,31-dimethyl-6,10,13,16,19,25,29,32,35,38-decaoxo-15,34-dipropylhexatriacontahydro-2H,6H-dipyrido[1,2-a:1′,2′-q][1,4,7,10,13,17,20,23,26,29]decaazacyclodotriacontine-7,26-diyl)dicarbamate | 85%
Benzyl tert-butyl ((7R,11S,19aS,26R,30S,38aS)-11,30-diisopropyl-12,31-dimethyl-6,10,13,16,19,25,29,32,35,38-decaoxohexatriacontahydro-2H,6H-dipyrido[1,2-a:1′,2′-q][1,4,7,10,13,17,20,23,26,29]decaazacyclodotriacontine-7,26-diyl)dicarbamate | 53%
Benzyl tert-butyl ((7R,11S,19aS,26R,30S,38aS)-11,30-diisopropyl-12,31-dimethyl-6,10,13,19,25,29,32,38-octaoxodotriacontahydro-2H,6H,16H,25H-dipyrido[1,2-a1:1′,2′-k][1,17]dioxa[4,7,11,14,20,23,27,30]octaazacyclodotriacontine-7,26-diyl)dicarbamate | 58%
Benzyl tert-butyl ((7R,11S,19aS,26R,30S,38aS)-11-((S)-sec-butyl)-30-isopropyl-12,15,31,34-tetramethyl-6,10,13,16,19,25,29,32,35,38-decaoxohexatriacontahydro-2H,6H-dipyrido[1,2-a:1′,2′-q][1,4,7,10,13,17,20,23,26,29]decaazacyclodotriacontine-7,26-diyl)dicarbamate | 75%
Benzyl tert-butyl ((7R,11S,19aS,26R,30S,38aS)-11-cyclohexyl-30-isopropyl-12,15,31,34-tetramethyl-6,10,13,16,19,25,29,32,35,38-decaoxohexatriacontahydro-2H,6H-dipyrido[1,2-a:1′,2′-q][1,4,7,10,13,17,20,23,26,29]decaazacyclodotriacontine-7,26-diyl)dicarbamate | 58%
Benzyl tert-butyl ((7R,11S,19aS,26R,30S,38aS)-11-isopropyl-12,15,31,34-tetramethyl-6,10,13,16,19,25,29,32,35,38-decaoxo-30-phenylhexatriacontahydro-2H,6H-dipyrido[1,2-a:1′,2′-q][1,4,7,10,13,17,20,23,26,29]decaazacyclodotriacontine-7,26-diyl)dicarbamate | 26%
Benzyl tert-butyl ((7R,11S,19aS,26R,30S,38aS)-12,31-diethyl-11,30-diisopropyl-15,34-dimethyl-6,10,13,16,19,25,29,32,35,38-decaoxohexatriacontahydro-2H,6H-dipyrido[1,2-a:1′,2′-q][1,4,7,10,13,17,20,23,26,29]decaazacyclodotriacontine-7,26-diyl)dicarbamate | 40%
Benzyl tert-butyl ((7R,11S,19aS,26R,30S,38aS)-15,34-diethyl-11,30-diisopropyl-12,31-dimethyl-6,10,13,16,19,25,29,32,35,38-decaoxohexatriacontahydro-2H,6H-dipyrido[1,2-a:1′,2′-q][1,4,7,10,13,17,20,23,26,29]decaazacyclodotriacontine-7,26-diyl)dicarbamate | 68%
Benzyl tert-butyl ((7R,19aS,26R,30S,38aS)-30-isopropyl-11,11,12,15,31,34-hexamethyl-6,10,13,16,19,25,29,32,35,38-decaoxohexatriacontahydro-2H,6H-dipyrido[1,2-a:1′,2′-q][1,4,7,10,13,17,20,23,26,29]decaazacyclodotriacontine-7,26-diyl)dicarbamate | 37%
Benzyl tert-butyl ((7′R,19a'S,26′R,30'S,38a'S)-30′-isopropyl-12′,15′,31′,34′-tetramethyl-6′,10′,13′,16′,19′,25′,29′,32′,35′,38′-decaoxotetratriacontahydro-2′H,6′H,12′H-spiro[cyclobutane-1,11′-dipyrido[1,2-a:1′,2′-q][1,4,7,10,13,17,20,23,26,29]decaazacyclodotriacontine]-7′,26′-diyl)dicarbamate | 43%
Benzyl tert-butyl ((7′R,19a'S,26′R,30'S,38a'S)-30′-isopropyl-12′,15′,31′,34′-tetramethyl-6′,10′,13′,16′,19′,25′,29′,32′,35′,38′-decaoxotetratriacontahydro-2′H,6′H,12′H-spiro[cyclopropane-1,11′-dipyrido[1,2-a:1′,2′-q][1,4,7,10,13,17,20,23,26,29]decaazacyclodotriacontine]-7′,26′-diyl)dicarbamate | 48%
Benzyl tert-butyl ((13S,16R,19aS,32S,35R,38aS)-13,32-diisopropyl-8,14,27,33-tetramethyl-6,9,12,15,19,25,28,31,34,38-decaoxohexatriacontahydro-2H,6H-dipyrido[2,1-c: 2′,1′-s][1,4,7,10,13,17,20,23,26,29]decaazacyclodotriacontine-16,35-diyl)dicarbamate | 57%
Bis(4-nitrobenzyl) ((7R,11S,19aS,26R,30S,38aS)-11,30-diisopropyl-12,15,31,34-tetramethyl-6,13,16,19,25,32,35,38-octaoxodotriacontahydro-2H,6H,10H,25H-dipyrido[2,1-b1: 2′,1′-l][1,17]dioxa[4,7,10,13,20,23,26,29]octaazacyclodotriacontine-7,26-diyl)dicarbamate | 68%
Di-tert-butyl ((7R,8R,11S,19aS,26R,27R,30S,38aS)-11,30-diisopropyl-8,12,15,27,31,34-hexamethyl-6,10,13,16,19,25,29,32,35,38-decaoxodotriacontahydro-2H,6H,10H,25H-dipyrido[2,1-b1: 2′,1′-l][1,17]dioxa[4,7,10,13,20,23,26,29]octaazacyclodotriacontine-7,26-diyl)dicarbamate | 50%
Di-tert-butyl ((7R,11S,19aS,26R,30S,38aS)-11,30-diisopropyl-9,12,15,28,31,34-hexamethyl-6,10,13,16,19,25,29,32,35,38-decaoxohexatriacontahydro-2H,6H-dipyrido[1,2-a:1′,2′-q][1,4,7,10,13,17,20,23,26,29]decaazacyclodotriacontine-7,26-diyl)dicarbamate | 65%
Di-tert-butyl ((7R,11S,19aS,26R,30S,38aS)-11,30-diisopropyl-12,15,31,34-tetramethyl-6,10,13,16,19,25,29,32,35,38-decaoxotetratriacontahydro-2H,6H,10H-dipyrido[2,1-b1: 2′,1′-l][1]oxa[4,7,10,13,17,20,23,26,29]nonaazacyclodotriacontine-7,26-diyl)dicarbamate | 86%
Dibenzyl ((7R,11S,19aS,26R,30S,38aS)-11-((R)-1-(tert-butoxy)ethyl)-30-isopropyl-12,15,31,34-tetramethyl-6,10,13,16,19,25,29,32,35,38-decaoxohexatriacontahydro-2H,6H-dipyrido[1,2-a:1′,2′-q][1,4,7,10,13,17,20,23,26,29]decaazacyclodotriacontine-7,26-diyl)dicarbamate | 91%
Tert-butyl (4-nitrobenzyl) ((7R,11R,19aS,26R,30S,38aS)-11-((S)-sec-butyl)-30-isopropyl-12,15,31,34-tetramethyl-6,13,16,19,25,29,32,35,38-nonaoxotetratriacontahydro-2H,6H,10H-dipyrido[2,1-b1: 2′,1′-l][1]oxa[4,7,10,13,17,20,23,26,29]nonaazacyclodotriacontine-7,26-diyl)dicarbamate | 72%
Tert-butyl (4-nitrobenzyl) ((7R,11S,19aS,26R,30S,38aS)-11,30-diisopropyl-12,15,31,34-tetramethyl-6,10,13,16,19,25,32,35,38-nonaoxodotriacontahydro-2H,6H,10H,25H-dipyrido[2,1-b1: 2′,1′-l][1,17]dioxa[4,7,10,13,20,23,26,29]octaazacyclodotriacontine-7,26-diyl)dicarbamate | 50%
Tert-butyl (4-nitrobenzyl) ((7R,11S,19aS,26R,30S,38aS)-11,30-diisopropyl-12,15,31,34-tetramethyl-6,13,16,19,25,29,32,35,38-nonaoxotetratriacontahydro-2H,6H,10H-dipyrido[2,1-b1: 2′,1′-l][1]oxa[4,7,10,13,17,20,23,26,29]nonaazacyclodotriacontine-7,26-diyl)dicarbamate | 68%
di-tert-butyl ((7R,11S,19aS,26R,30S,38aS)-11,30-diisopropyl-12,15,31,34-tetramethyl-6,10,13,16,19,25,29,32,35,38-decaoxohexatriacontahydro-2H,6H-dipyrido[1,2-a:1′,2′-q][1,4,7,10,13,17,20,23,26,29]decaazacyclodotriacontine-7,26-diyl)dicarbamate | 34%
